In patent publication US20260092083A1, “VANCOMYCIN DERIVATIVES WITH SIDEROPHORE MODIFICATION AS NOVEL REPURPOSED ANTIBIOTICS TO COMBAT GRAM-NEGATIVE BACTERIAL INFECTION” (priority 2023, published 2026):
In brackets after ≈: the same amount, converted by molar mass.

How the values were obtained:
Format in all cases: cell-based
[1] = tested on: K. pneumoniae ATCC 700603; test: Broth microdilution MIC, K. pneumoniae; conditions: Klebsiella pneumoniae, ATCC700603, read-out: MIC (μg/mL) Gram-negative KPN
Description: (§1) The test compounds including vancomycin hydrochloride were supplied as a 6.4 mg/mL solution in 100% dimethyl sulfoxide (DMSO) aliquoted into individual wells of a 96-well plate (50 μL per well). […] Standardized inocula were added to the MIC test plates, which were incubated for the prescribed times at 35° C. The N. gonorrhoeae strain was incubated in an atmosphere containing 5% CO2.
(§2) The final optical density of each well at 600 nm was measured using a Tecan Spark plate reader. The compound concentration versus OD600 data were then curve fit using custom software. An MIC value was defined as the lowest compound concentration that led to an OD600 value≤0.15 for the E. coli, K. pneumoniae, P. aeruginosa, A. baumannii, or S. aureus strains. For the N. gonorrhoeae strain, an OD600 value≤0.19 was used as a cutoff to define an MIC value; this higher cut-off value was required because the N. gonorrhoeae MIC plates were covered with plastic seals that increased the background OD600 value.
(§3) JMI Laboratories followed current CLSI quality assurance practices when performing the susceptibility tests. MIC values were validated by concurrently testing the CLSI-recommended ATCC QC reference strains S. aureus ATCC 29213 and K. pneumoniae ATCC 700603. The inoculum density during susceptibility testing was monitored by bacterial colony counts. Where applicable, QC ranges for tested reference strains were those ranges approved or published by CLSI for testing in CAMHB. […] Importantly, the CLSI reference method for testing N. gonorrhoeae is the agar dilution MIC method, which was not used here. Thus, CLSI MIC QC ranges for N. gonorrhoeae could not be applied to the antimicrobials studied here.
(§4) Abbreviations: EC, E. coli (wild-type) BW25113; EC efflux^−, E. coli (tolC) JW5503-1; KPN, K. pneumoniae ATCC 700603; PSA, P. aeruginosa PAO1; PSA efflux^−, P. aeruginosa (multi-pump-gene mutant) PAM1626; ACB, A. baumannii JMI #1186154; GC, N. gonorrhoeae WHO-Z; SA, S. aureus ATCC 29213. Broth microdilution MIC values were measured in iron-depleted CAMHB for all strains except for GC, which was tested in fastidious broth.

[2] = tested on: E. coli (tolC) JW5503-1; test: Broth microdilution MIC, E. coli efflux-deficient (tolC); conditions: Escherichia coli, read-out: MIC (μg/mL) Gram-negative EC Efflux
Description: as §1, §2, §3, §4

[3] = tested on: S. aureus ATCC 29213; test: Broth microdilution MIC, S. aureus; conditions: Staphylococcus aureus, ATCC29213, iron-depleted CAMHB, OD600 ≤0.15, read-out: MIC (μg/mL) Gram positive SA
Description: as §1, §2, §3, §4

[4] = tested on: P. aeruginosa PAO1; test: Broth microdilution MIC, P. aeruginosa; conditions: Pseudomonas aeruginosa, iron-depleted CAMHB, OD600 ≤0.15, read-out: MIC (μg/mL) Gram-negative PSA
Description: as §1, §2, §3, §4

[5] = tested on: N. gonorrhoeae WHO-Z; test: Broth microdilution MIC, N. gonorrhoeae; conditions: Neisseria gonorrhoeae, read-out: MIC (μg/mL) Gram-negative GC
Description: as §1, §2, §3, §4

[6] = tested on: A. baumannii JMI #1186154; test: Broth microdilution MIC, A. baumannii; conditions: Acinetobacter baumannii, iron-depleted CAMHB, OD600 ≤0.15, read-out: MIC (μg/mL) Gram-negative ACB
Description: as §1, §2, §3, §4

[7] = tested on: E. coli (wild-type) BW25113; test: Broth microdilution MIC, E. coli wild-type; conditions: Escherichia coli, iron-depleted CAMHB, OD600 ≤0.15, read-out: MIC (μg/mL) Gram-negative EC
Description: as §1, §2, §3, §4

[8] = tested on: P. aeruginosa (multi-pump-gene mutant) PAM1626; test: Broth microdilution MIC, P. aeruginosa efflux-deficient; conditions: Pseudomonas aeruginosa, read-out: MIC (μg/mL) Gram-negative PSA Efflux
Description: as §1, §2, §3, §4

Structure (SMILES) | MIC [1] | MIC [2] | MIC [3] | MIC [4] | MIC [5] | MIC [6] | MIC [7] | MIC [8]
CNC(CC(C)C)C(=O)NC1C(=O)NC(CC(N)=O)C(=O)NC2C(=O)NC3C(=O)NC(C(=O)N[C@H](C(=O)O)c4cc(O)c(CNCCN[S@SP3](=O)(=O)c5ccc(O)c(O)c5)c(O)c4-c4cc3ccc4O)C(O)c3ccc(c(Cl)c3)Oc3cc2cc(c3OC2OC(CO)C(O)C(O)C2OC2CC(C)(N)C(O)C(C)O2)Oc2ccc(cc2Cl)C1O (stereo partly drawn) [Compound 25] | > 64 µg/mL | 64 µg/mL (≈ 37.8 µM) | 4 µg/mL (≈ 2.36 µM) | > 64 µg/mL | > 64 µg/mL | 32 µg/mL (≈ 18.9 µM) | 16 µg/mL (≈ 9.45 µM) | > 64 µg/mL
CNC(CC(C)C)C(=O)NC1C(=O)NC(CC(N)=O)C(=O)NC2C(=O)NC3C(=O)NC(C(=O)N[C@H](C(=O)O)c4cc(O)c(CNCc5cn(CCCNC(=O)c6ccc(O)c(O)c6Cl)nn5)c(O)c4-c4cc3ccc4O)C(O)c3ccc(c(Cl)c3)Oc3cc2cc(c3OC2OC(CO)C(O)C(O)C2OC2CC(C)(N)C(O)C(C)O2)Oc2ccc(cc2Cl)C1O (stereo partly drawn) [Compound 27] | > 64 µg/mL | 64 µg/mL (≈ 35.8 µM) | 8 µg/mL (≈ 4.48 µM) | > 64 µg/mL | > 64 µg/mL | 16 µg/mL (≈ 8.95 µM) | 16 µg/mL (≈ 8.95 µM) | > 64 µg/mL
CNC(CC(C)C)C(=O)NC1C(=O)NC(CC(N)=O)C(=O)NC2C(=O)NC3C(=O)NC(C(=O)N[C@H](C(=O)O)c4cc(O)cc(O)c4-c4cc3ccc4O)C(O)c3ccc(c(Cl)c3)Oc3cc2cc(c3OC2OC(CO)C(O)C(O)C2OC2CC(C)(NCCNC(=O)c3ccc(O)c(O)c3Cl)C(O)C(C)O2)Oc2ccc(cc2Cl)C1O (stereo partly drawn) [Compound 28] | > 64 µg/mL | > 64 µg/mL | 4 µg/mL (≈ 2.41 µM) | > 64 µg/mL | > 64 µg/mL | 32 µg/mL (≈ 19.2 µM) | > 64 µg/mL | > 64 µg/mL
CC(C)C[C@H](C(=O)N[C@H]1C(=O)N[C@@H](CC(N)=O)C(=O)N[C@H]2C(=O)N[C@H]3C(=O)N[C@H](C(=O)N[C@H](C(=O)O)c4cc(O)cc(O)c4-c4cc3ccc4O)[C@H](O)c3ccc(c(Cl)c3)Oc3cc2cc(c3O[C@@H]2O[C@H](CO)C(O)C(O)[C@H]2O[C@H]2CC(C)(N)[C@H](O)[C@H](C)O2)Oc2ccc(cc2Cl)[C@H]1O)N(C)CCNC(=O)c1ccc(O)c(O)c1Cl (stereo partly drawn) [Compound 30] | > 64 µg/mL | > 64 µg/mL | 4 µg/mL (≈ 2.41 µM) | > 64 µg/mL | > 64 µg/mL | 32 µg/mL (≈ 19.2 µM) | 64 µg/mL (≈ 38.5 µM) | > 64 µg/mL
CNC(CC(C)C)C(=O)NC1C(=O)NC(CC(N)=O)C(=O)NC2C(=O)NC3C(=O)NC(C(=O)N[C@H](C(=O)O)c4cc(O)cc(O)c4-c4cc3ccc4O)C(O)c3ccc(c(Cl)c3)Oc3cc2cc(c3OC2OC(CO)C(O)C(O)C2OC2CC(C)(NCCCc3cn(CCCNC(=O)c4ccc(O)c(O)c4Cl)nn3)C(O)C(C)O2)Oc2ccc(cc2Cl)C1O (stereo partly drawn) [Compound 31] | > 64 µg/mL | 32 µg/mL (≈ 17.9 µM) | 8 µg/mL (≈ 4.48 µM) | > 64 µg/mL | > 64 µg/mL | 64 µg/mL (≈ 35.8 µM) | > 64 µg/mL | > 64 µg/mL
CC(C)CC(C(=O)NC1C(=O)NC(CC(N)=O)C(=O)NC2C(=O)NC3C(=O)NC(C(=O)N[C@H](C(=O)O)c4cc(O)cc(O)c4-c4cc3ccc4O)C(O)c3ccc(c(Cl)c3)Oc3cc2cc(c3OC2OC(CO)C(O)C(O)C2OC2CC(C)(N)C(O)C(C)O2)Oc2ccc(cc2Cl)C1O)N(C)CCCc1cn(CCCNC(=O)c2ccc(O)c(O)c2Cl)nn1 (stereo partly drawn) [Compound 32] | > 64 µg/mL | > 64 µg/mL | 32 µg/mL (≈ 17.9 µM) | > 64 µg/mL | > 64 µg/mL | 32 µg/mL (≈ 17.9 µM) | > 64 µg/mL | > 64 µg/mL
